# Data as given in PMC8155467 (ACS Central Science, 2021).
# What was measured:
# [1] = target: AKR1B10_C299A mutant (Homo sapiens, UniProt O60218, C299A); assay: AKR1B10 Inhibition Assay; assay type: biochemical; conditions: VC59 0.5-50 µM, 1 h; tolrestat, isolithocholic acid 500 nM, 15 min
# [2] = target: AKR1B10 (Homo sapiens, UniProt O60218); conditions: cited from earlier work
# AKR1B10, sequence (O60218 whole entry): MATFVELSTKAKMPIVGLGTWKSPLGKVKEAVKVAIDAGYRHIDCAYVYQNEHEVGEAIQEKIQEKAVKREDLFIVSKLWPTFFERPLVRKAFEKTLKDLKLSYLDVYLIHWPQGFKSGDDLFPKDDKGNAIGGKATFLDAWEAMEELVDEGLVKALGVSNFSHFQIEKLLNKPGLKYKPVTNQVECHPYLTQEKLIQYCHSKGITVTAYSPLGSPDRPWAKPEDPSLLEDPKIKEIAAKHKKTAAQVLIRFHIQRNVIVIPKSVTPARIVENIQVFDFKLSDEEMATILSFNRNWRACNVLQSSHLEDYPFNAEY
# AKR1B10_C299A mutant, sequence (O60218 whole entry C299A): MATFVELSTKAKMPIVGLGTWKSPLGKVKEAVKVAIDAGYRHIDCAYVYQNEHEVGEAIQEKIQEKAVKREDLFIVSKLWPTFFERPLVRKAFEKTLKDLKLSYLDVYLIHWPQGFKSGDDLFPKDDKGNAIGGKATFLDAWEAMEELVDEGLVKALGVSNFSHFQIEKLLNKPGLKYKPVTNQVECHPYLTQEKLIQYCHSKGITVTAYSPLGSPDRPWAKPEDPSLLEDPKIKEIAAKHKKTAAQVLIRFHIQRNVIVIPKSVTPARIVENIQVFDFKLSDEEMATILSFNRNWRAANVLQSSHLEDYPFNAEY
inhibition of AKR1B10_C299A mutant reductase activity (NADPH absorbance assay) [1],SMILES,inhibition of AKR1B10 activity by natural electrophilic compounds engaging C299 [2]
maintained sensitivity,C[C@H](CCC(=O)O)[C@H]1CC[C@H]2[C@@H]3CC[C@@H]4C[C@@H](O)CC[C@]4(C)[C@H]3CC[C@]12C [isolithocholic acid],
,CCCCC[C@H](O)/C=C/[C@H]1C=CC(=O)[C@@H]1CCCCCCC(=O)O [prostaglandin A1],inhibit AKR1B10 activity
maintained sensitivity,COc1ccc2c(C(=S)N(C)CC(=O)O)cccc2c1C(F)(F)F [tolrestat],
